Columns and labels:
[1] = system: GαqRC and p63RhoGEF (Gαq coupled activation of RhoA); test: Rhotekin-based precipitation of RhoA-GTP, HEK293 transfected with GαqRC / p63RhoGEF; format: cell-based, human; conditions: 50 μmol/L
Procedure: HEK293 cells were seeded in 6-well plates. One day later the cells were transfected with the following plasmid DNAs:
After additional 24 hours the cells were treated with compound 31413 (50 μmol/L) or DMSO for 30 min at 37° C. Subsequently, the cells were lysed in precipitation buffer (50 mM Tris pH 7.4, 150 mmol/L NaCl, 4 mmol/L MgCl2; 10% v/v glycerol, 1% octylphenoxypolyethoxyethanol [IPEGAL]) and centrifugated 20000 g for two minutes to remove cell debris. 40 μl of the lysate were taken for the determination of the total RhoA content. The residual lysate was incubated with 40 μl GSH-sepharose coupled GST-rhotekin for one hour at 4° C. Then, the GSH-sepharose was washed twice with precipitation buffer, enriched with SDS-PAGE loading buffer and heated 5 min at 90° C. […] The ratio between total RhoA and Rho-GTP was densitometrically determined.
The activation state of RhoA was determined with a Rho binding region of the rhotekin protein, a Rho effector, immobilised on a sepharose bead in the presence and absence of compound 31413. […]
GTP-bound RhoA was detected by rhotekin precipitation (FIG. 3). The precipitation of RhoA from transfected HEK293 cells was performed with a rhotekin sepharose, and analysed with SDS-PAGE and immunoblotting with a RhoA specific antibody. […] The precipitated RhoA-GTP was separated with SDS-PAGE, blotted and detected with a specific anti-RhoA antibody.

3T3 mouse fibroblasts = test: LPA-induced stress fibre formation, TRITC-phalloidin fluorescence; format: cell-based; conditions: 3T3 cells, LPA 300 nM 10 min; compound 30 μmol/L 30 min pre-treatment
From the text: For the initial analysis, 3T3 cells were used to evaluate the cellular effects of the compounds of the present invention. In these cells changes in the cytoskeleton caused by GTPase activation are well observable, because the cells have a G protein coupled receptor for LPA. A stimulation of 3T3 cells with LPA leads to an activation of RhoA and thereby to the formation of fibrillar actin filaments (F-actin, stress fibres). The participation of AKAP-Lbc as an exchange factor for RhoA within the signal transduction via a G protein of the G−12/13 family was shown.
3T3 mouse fibroblasts were seeded on 30 mm cover slips (in 6 well plates) in a cell density of 2×10^5 cells/well. […]
Following that, the cells were washed with phosphate buffer (Dulbecco's Phosphate-Buffered Saline++) and fixed in 2.5% paraformaldehyde in sodium cacodylate buffer (100 mmol/L sodium cacodylate, 100 mmol/L sucrose, pH 7.4) for 15 min. […] For the microscopic investigations, images were taken with two different fluorescence channels. […]
Without LPA stimulation no stress fibres could be identified after addition of DMSO instead of the compounds of the invention (FIG. 2A, a). […] The quantification of the stress fibre formation were performed with the software package ImageJ by the determination of the overall fluorescence of the TRITC-phalloidin. […]

**Q.** `COc1ccc(-c2coc3cc4oc(=O)c(C)c(C)c4cc23)cc1` [Compound 31413, 3-(4-methoxyphenyl)-5,6-dimethyl-furo[3,2-g]chromen-7-one] was tested. Which “precipitated amount of RhoA-GTP” value [1] did it give?
**A.** no difference

**Q.** What about the “formation of stress fibres” value (3T3 mouse fibroblasts) of the same compound?
**A.** suppression of the stress fibre formation
